Results published in PubChem BioAssay (NCI).
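Growth conditions: 96-well plates. Treatment: test compound, 48 hours, 5 concentrations. Analysis: linear interpolation between bracketing concentrations; unreached endpoints set to highest concentration. GI50 = concentration required for 50% inhibition of growth. TGI: concentration producing complete growth inhibition.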

Experiments:
Assay in all cases: inhibition of tumour cell growth, NCI panel, 48 h
786-0 renal = test system: 786-0 renal
A498 renal = test system: A498 renal
A549 NSCLC = test system: A549 NSCLC
ACHN renal = test system: ACHN renal
BT-549 breast = test system: BT-549 breast
CAKI-1 renal = test system: CAKI-1 renal
CCRF-CEM leukemia = test system: CCRF-CEM leukemia
COLO 205 colon = test system: COLO 205 colon
DU-145 prostate = test system: DU-145 prostate
EKVX NSCLC = test system: EKVX NSCLC
HCC-2998 colon = test system: HCC-2998 colon
HCT-116 colon = test system: HCT-116 colon
HCT-15 colon = test system: HCT-15 colon
HL-60(TB) leukemia = test system: HL-60(TB) leukemia
HOP-62 NSCLC = test system: HOP-62 NSCLC
HOP-92 NSCLC = test system: HOP-92 NSCLC
HS 578T breast = test system: HS 578T breast
HT29 colon = test system: HT29 colon
IGROV1 ovarian = test system: IGROV1 ovarian
KM12 colon = test system: KM12 colon
LOX IMVI melanoma = test system: LOX IMVI melanoma
MALME-3M melanoma = test system: MALME-3M melanoma
MCF7 breast = test system: MCF7 breast
MDA-MB-231 breast = test system: MDA-MB-231 breast
MDA-MB-435 = test system: MDA-MB-435
MOLT-4 leukemia = test system: MOLT-4 leukemia
NCI-H226 lung = test system: NCI-H226 lung
NCI-H460 lung = test system: NCI-H460 lung
NCI-H522 lung = test system: NCI-H522 lung
NCI/ADR-RES ovarian = test system: NCI/ADR-RES ovarian
OVCAR-3 ovarian = test system: OVCAR-3 ovarian
OVCAR-4 ovarian = test system: OVCAR-4 ovarian
OVCAR-5 ovarian = test system: OVCAR-5 ovarian
OVCAR-8 ovarian = test system: OVCAR-8 ovarian
PC-3 prostate = test system: PC-3 prostate
RXF 393 renal = test system: RXF 393 renal
SF-268 CNS = test system: SF-268 CNS
SF-295 CNS = test system: SF-295 CNS
SF-539 CNS = test system: SF-539 CNS
SK-MEL-2 melanoma = test system: SK-MEL-2 melanoma
SK-MEL-28 melanoma = test system: SK-MEL-28 melanoma
SK-MEL-5 melanoma = test system: SK-MEL-5 melanoma
SK-OV-3 ovarian = test system: SK-OV-3 ovarian
SN12C renal = test system: SN12C renal
SNB-19 CNS = test system: SNB-19 CNS
SNB-75 CNS = test system: SNB-75 CNS
SW-620 colon = test system: SW-620 colon
T-47D breast = test system: T-47D breast
TK-10 renal = test system: TK-10 renal
U251 CNS = test system: U251 CNS
UACC-257 melanoma = test system: UACC-257 melanoma
UACC-62 melanoma = test system: UACC-62 melanoma
UO-31 renal = test system: UO-31 renal

## Oc1cc(Cn2cnc3c(Cl)nc(Cl)nc32)ccc1C12CC3CC(CC(C3)C1)C2
786-0 renal
  GI50: 18.5 µM
  TGI: 34.4 µM
A498 renal
  GI50: > 100 µM
  TGI: > 100 µM
A549 NSCLC
  GI50: 18.1 µM
  TGI: 33.2 µM
ACHN renal
  GI50: 17.9 µM
  TGI: 31.7 µM
BT-549 breast
  GI50: 17.5 µM
  TGI: 34.4 µM
CAKI-1 renal
  GI50: 15.4 µM
  TGI: 31.3 µM
CCRF-CEM leukemia
  GI50: 2.17 µM
  TGI: 5.78 µM
COLO 205 colon
  GI50: 19.9 µM
  TGI: 37.2 µM
DU-145 prostate
  GI50: 16.2 µM
  TGI: 29.7 µM
EKVX NSCLC
  GI50: 23.8 µM
  TGI: 53.1 µM
HCC-2998 colon
  GI50: 16 µM
  TGI: 30.4 µM
HCT-116 colon
  GI50: 14 µM
  TGI: 26.9 µM
HCT-15 colon
  GI50: 16.3 µM
  TGI: 29.8 µM
HL-60(TB) leukemia
  GI50: 4.36 µM
  TGI: 15.7 µM
HOP-62 NSCLC
  GI50: 16.2 µM
  TGI: 29.8 µM
HOP-92 NSCLC
  GI50: 14.6 µM
  TGI: 27.8 µM
HS 578T breast
  GI50: 49.6 µM
  TGI: > 100 µM
HT29 colon
  GI50: 16 µM
  TGI: 29.5 µM
IGROV1 ovarian
  GI50: 15.8 µM
  TGI: 30 µM
KM12 colon
  GI50: 17.5 µM
  TGI: 34.4 µM
LOX IMVI melanoma
  GI50: 4.12 µM
  TGI: 18.6 µM
MALME-3M melanoma
  GI50: 11.8 µM
  TGI: 27.8 µM
MCF7 breast
  GI50: 15 µM
  TGI: 28.3 µM
MDA-MB-231 breast
  GI50: 15 µM
  TGI: 30.3 µM
MDA-MB-435
  GI50: 19.9 µM
  TGI: 48.6 µM
MOLT-4 leukemia
  GI50: 3.72 µM
  TGI: 11.2 µM
NCI-H226 lung
  GI50: 23.3 µM
  TGI: 63.7 µM
NCI-H460 lung
  GI50: 16.4 µM
  TGI: 30.2 µM
NCI-H522 lung
  GI50: 15.2 µM
  TGI: 28.5 µM
NCI/ADR-RES ovarian
  GI50: 21.9 µM
  TGI: 57.2 µM
OVCAR-3 ovarian
  GI50: 18 µM
  TGI: 36.3 µM
OVCAR-4 ovarian
  GI50: 16.4 µM
  TGI: 30 µM
OVCAR-5 ovarian
  GI50: 20.2 µM
  TGI: 45.7 µM
OVCAR-8 ovarian
  GI50: 23.2 µM
  TGI: 58 µM
PC-3 prostate
  GI50: 15.5 µM
  TGI: 28.9 µM
RXF 393 renal
  GI50: 15.2 µM
  TGI: 29.3 µM
SF-268 CNS
  GI50: 14.4 µM
  TGI: 28 µM
SF-295 CNS
  GI50: 20.5 µM
  TGI: 47.9 µM
SF-539 CNS
  GI50: 23.6 µM
  TGI: 45.1 µM
SK-MEL-2 melanoma
  GI50: 18.4 µM
  TGI: 38 µM
SK-MEL-28 melanoma
  GI50: 16.9 µM
  TGI: 31 µM
SK-MEL-5 melanoma
  GI50: 15 µM
  TGI: 32 µM
SK-OV-3 ovarian
  GI50: 24.7 µM
  TGI: 55.1 µM
SN12C renal
  GI50: 16.5 µM
  TGI: 32.2 µM
SNB-19 CNS
  GI50: 17.6 µM
  TGI: 31.4 µM
SNB-75 CNS
  GI50: 16.4 µM
  TGI: 32.2 µM
SW-620 colon
  GI50: 24.6 µM
  TGI: 56.8 µM
T-47D breast
  GI50: 21.8 µM
  TGI: 80.6 µM
TK-10 renal
  GI50: 19.5 µM
  TGI: 38.8 µM
U251 CNS
  GI50: 16.6 µM
  TGI: 30.2 µM
UACC-257 melanoma
  GI50: 19 µM
  TGI: 39.2 µM
UACC-62 melanoma
  GI50: 16.8 µM
  TGI: 30.5 µM
UO-31 renal
  GI50: 17.3 µM
  TGI: 31.1 µM
